Results reported in ChEMBL document CHEMBL4184185, “Dihydrobenzisoxazole-4-one compounds are novel selective inhibitors of aldosterone synthase (CYP11B2) with in vivo activity” (Bioorg Med Chem Lett, 2018).

What was measured:
[1] = target: T1, Aromatase (Homo sapiens, UniProt P11511); assay: Inhibition of CYP19A1 (unknown origin) at 20 uM
T1 sequence (P11511 whole entry): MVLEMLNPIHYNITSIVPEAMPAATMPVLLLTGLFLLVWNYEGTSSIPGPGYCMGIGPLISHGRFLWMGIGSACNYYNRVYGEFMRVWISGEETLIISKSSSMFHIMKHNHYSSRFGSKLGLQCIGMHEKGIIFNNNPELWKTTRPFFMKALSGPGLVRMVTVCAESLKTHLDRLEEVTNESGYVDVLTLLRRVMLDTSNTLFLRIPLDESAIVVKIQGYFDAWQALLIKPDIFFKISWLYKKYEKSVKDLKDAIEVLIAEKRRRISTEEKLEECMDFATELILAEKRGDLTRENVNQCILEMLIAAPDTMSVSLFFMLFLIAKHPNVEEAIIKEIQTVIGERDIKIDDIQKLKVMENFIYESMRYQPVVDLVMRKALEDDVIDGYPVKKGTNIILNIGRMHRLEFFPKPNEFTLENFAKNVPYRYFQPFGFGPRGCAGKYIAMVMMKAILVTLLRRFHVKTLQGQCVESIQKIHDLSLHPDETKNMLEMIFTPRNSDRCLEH

[2] = test system: Cynomolgus monkey; assay: In vivo inhibition of ACTH-stimulated aldosterone level in cynomolgus monkey assessed as change in plasma aldosterone AUC (0 to 3 hrs) at 8 mg/kg, iv administered 5 mins before ACTH challenge relative to control; type: functional, Macaca fascicularis; parameters: scale not given: the % may be the effect or the level left
[3] = target: Cytochrome P450 2C9 (Homo sapiens, UniProt P11712); assay: Inhibition of CYP2C9 (unknown origin) at 30 uM; type: ADME
Chain of Cytochrome P450 2C9 (P11712 whole entry): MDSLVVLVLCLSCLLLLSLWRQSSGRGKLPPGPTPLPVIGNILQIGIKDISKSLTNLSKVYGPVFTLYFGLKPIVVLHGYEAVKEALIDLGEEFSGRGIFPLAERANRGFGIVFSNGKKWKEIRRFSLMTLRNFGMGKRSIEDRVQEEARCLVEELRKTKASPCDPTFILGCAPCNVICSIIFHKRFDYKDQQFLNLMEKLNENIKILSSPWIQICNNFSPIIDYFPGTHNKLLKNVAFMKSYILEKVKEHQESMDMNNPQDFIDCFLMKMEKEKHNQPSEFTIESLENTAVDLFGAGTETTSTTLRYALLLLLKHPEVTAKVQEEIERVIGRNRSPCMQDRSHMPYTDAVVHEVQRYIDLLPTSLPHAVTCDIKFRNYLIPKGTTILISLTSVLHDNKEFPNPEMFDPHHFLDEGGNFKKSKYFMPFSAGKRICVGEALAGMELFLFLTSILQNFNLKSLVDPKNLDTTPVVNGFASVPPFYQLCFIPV

[4] = test system: Cynomolgus monkey; assay: In vivo inhibition of ACTH-stimulated aldosterone level in cynomolgus monkey assessed as change in plasma aldosterone AUC (0 to 3 hrs) at 1 mg/kg, iv administered 5 mins before ACTH challenge relative to control; type: functional, Macaca fascicularis; parameters: scale not given: the % may be the effect or the level left
[5] = target: T1, Aromatase; assay: Inhibition of CYP19A1 (unknown origin)
[6] = Unbound plasma concentration in ACTH-stimulated cynomolgus monkey at 8 mg/kg, iv administered 5 mins before ACTH challenge measured at 15 mins post dose; type: ADME, organism-based, Macaca fascicularis; conditions: in vivo, 0.25 h
[7] = target: Cytochrome P450 3A4 (Homo sapiens, UniProt P08684); assay: Inhibition of CYP3A4 (unknown origin) at 30 uM; type: ADME
Chain of Cytochrome P450 3A4 (P08684 whole entry): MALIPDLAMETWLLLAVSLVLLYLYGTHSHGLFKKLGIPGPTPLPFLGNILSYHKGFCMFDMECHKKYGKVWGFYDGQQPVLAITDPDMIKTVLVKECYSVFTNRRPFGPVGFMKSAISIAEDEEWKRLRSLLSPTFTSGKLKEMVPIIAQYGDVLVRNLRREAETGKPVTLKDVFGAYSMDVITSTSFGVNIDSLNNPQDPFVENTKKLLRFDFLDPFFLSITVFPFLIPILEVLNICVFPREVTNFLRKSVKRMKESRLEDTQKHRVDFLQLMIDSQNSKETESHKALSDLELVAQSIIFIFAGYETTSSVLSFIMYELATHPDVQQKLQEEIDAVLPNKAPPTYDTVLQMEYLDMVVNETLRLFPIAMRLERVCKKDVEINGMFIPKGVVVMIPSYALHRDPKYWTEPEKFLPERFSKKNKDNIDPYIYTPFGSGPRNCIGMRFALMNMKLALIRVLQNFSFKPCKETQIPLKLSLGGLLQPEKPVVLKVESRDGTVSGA

[8] = Clearance in Beagle dog hepatocytes relative to hepatic blood flow; type: ADME, cell-based, Canis lupus familiaris, Hepatocyte; conditions: read-out: CLH
[9] = Inhibition of cynomolgus monkey adrenal mitochondrial CYP11B2 using corticosterone as substrate after 60 mins in presence of NADPH by mass spectrometric analysis
[10] = Oral bioavailability in cynomolgus monkey; type: ADME, organism-based, Macaca fascicularis; conditions: in vivo
[11] = test system: Cynomolgus monkey; assay: In vivo inhibition of ACTH-stimulated aldosterone level in cynomolgus monkey assessed as change in plasma aldosterone AUC (0 to 3 hrs) at 0.1 mg/kg, iv administered 5 mins before ACTH challenge relative to control; type: functional, Macaca fascicularis; parameters: scale not given: the % may be the effect or the level left
[12] = Plasma concentration in ACTH-stimulated cynomolgus monkey at 0.1 mg/kg, iv administered 5 mins before ACTH challenge measured at 15 mins post dose; type: ADME, organism-based, Macaca fascicularis
[13] = test system: Canis familiaris; assay: Clearance in iv dosed Beagle dog relative to hepatic blood flow; type: ADME, organism-based, Canis lupus familiaris; conditions: in vivo
[14] = Clearance in Wistar Han rat hepatocytes relative to hepatic blood flow; type: ADME, cell-based, Hepatocyte; conditions: read-out: CLH
[15] = Plasma concentration in ACTH-stimulated cynomolgus monkey at 0.1 mg/kg, iv administered 5 mins before ACTH challenge measured after 3 hrs; type: ADME, organism-based, Macaca fascicularis
[16] = Unbound plasma concentration in ACTH-stimulated cynomolgus monkey at 0.1 mg/kg, iv administered 5 mins before ACTH challenge measured after 3 hrs; type: ADME, organism-based, Macaca fascicularis; conditions: in vivo
[17] = Clearance in human hepatocytes relative to hepatic blood flow; type: ADME, cell-based, Hepatocyte; conditions: read-out: CLH
[18] = test system: Cynomolgus monkey; assay: Clearance in iv dosed cynomolgus monkey relative to hepatic blood flow; type: ADME, organism-based, Macaca fascicularis; conditions: in vivo
[19] = Clearance in cynomolgus monkey hepatocytes relative to hepatic blood flow; type: ADME, cell-based, Macaca fascicularis, Hepatocyte; conditions: read-out: CLH
[20] = Inhibition of cynomolgus monkey adrenal mitochondrial CYP11B1 using 11-deoxycortisol as substrate after 90 mins in presence of NADPH by mass spectrometric analysis
[21] = Unbound plasma concentration in ACTH-stimulated cynomolgus monkey at 0.1 mg/kg, iv administered 5 mins before ACTH challenge measured at 15 mins post dose; type: ADME, organism-based, Macaca fascicularis; conditions: in vivo, 0.25 h
[22] = Oral bioavailability in Beagle dog; type: ADME, organism-based, Canis lupus familiaris; conditions: in vivo
[23] = Plasma concentration in ACTH-stimulated cynomolgus monkey at 8 mg/kg, iv administered 5 mins before ACTH challenge measured at 15 mins post dose; type: ADME, organism-based, Macaca fascicularis
[24] = Oral bioavailability in Wistar Han rat; type: ADME, organism-based; conditions: in vivo
[25] = species: Macaca fascicularis; assay: Selectivity index, ratio of IC50 for cynomolgus monkey adrenal mitochondrial CYP11B1 to IC50 for cynomolgus monkey adrenal mitochondrial CYP11B2
[26] = target: Cytochrome P450 2D6 (Homo sapiens, UniProt P10635); assay: Inhibition of CYP2D6 (unknown origin) at 30 uM; type: ADME
Chain of Cytochrome P450 2D6 (P10635 whole entry): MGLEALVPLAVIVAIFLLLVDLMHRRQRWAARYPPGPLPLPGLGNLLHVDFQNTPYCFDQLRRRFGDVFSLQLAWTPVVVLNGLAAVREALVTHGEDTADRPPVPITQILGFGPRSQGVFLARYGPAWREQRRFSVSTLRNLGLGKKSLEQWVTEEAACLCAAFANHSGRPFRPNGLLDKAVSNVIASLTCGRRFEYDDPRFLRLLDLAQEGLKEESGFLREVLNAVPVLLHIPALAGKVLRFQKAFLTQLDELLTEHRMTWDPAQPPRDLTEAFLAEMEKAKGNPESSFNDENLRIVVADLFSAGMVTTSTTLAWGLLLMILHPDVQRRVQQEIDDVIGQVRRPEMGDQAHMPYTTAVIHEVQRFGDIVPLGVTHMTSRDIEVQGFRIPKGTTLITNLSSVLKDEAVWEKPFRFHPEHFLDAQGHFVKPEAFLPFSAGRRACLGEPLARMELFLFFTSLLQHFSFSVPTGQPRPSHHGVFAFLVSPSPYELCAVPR

[27] = Clearance in human liver microsomes relative to hepatic blood flow; type: ADME, microsome; conditions: read-out: CLH
[28] = test system: Cynomolgus monkey; assay: In vivo inhibition of ACTH-stimulated aldosterone level in iv dosed cynomolgus monkey assessed as change in plasma aldosterone AUC (0 to 3 hrs) administered 5 mins before ACTH challenge; type: functional, organism-based; conditions: Macaca fascicularis
[29] = test system: Cynomolgus monkey; assay: Effect on ACTH-stimulated plasma cortisol level in cynomolgus monkey up to 8 mg/kg, iv administered 5 mins before ACTH challenge measured after 3 hrs; type: ADME, organism-based, Macaca fascicularis; conditions: in vivo
[30] = target: T2, Steroid 17-alpha-hydroxylase/17,20 lyase (Homo sapiens, UniProt P05093); assay: Inhibition of CYP17A1 (unknown origin); type: ADME
T2 sequence (P05093 whole entry): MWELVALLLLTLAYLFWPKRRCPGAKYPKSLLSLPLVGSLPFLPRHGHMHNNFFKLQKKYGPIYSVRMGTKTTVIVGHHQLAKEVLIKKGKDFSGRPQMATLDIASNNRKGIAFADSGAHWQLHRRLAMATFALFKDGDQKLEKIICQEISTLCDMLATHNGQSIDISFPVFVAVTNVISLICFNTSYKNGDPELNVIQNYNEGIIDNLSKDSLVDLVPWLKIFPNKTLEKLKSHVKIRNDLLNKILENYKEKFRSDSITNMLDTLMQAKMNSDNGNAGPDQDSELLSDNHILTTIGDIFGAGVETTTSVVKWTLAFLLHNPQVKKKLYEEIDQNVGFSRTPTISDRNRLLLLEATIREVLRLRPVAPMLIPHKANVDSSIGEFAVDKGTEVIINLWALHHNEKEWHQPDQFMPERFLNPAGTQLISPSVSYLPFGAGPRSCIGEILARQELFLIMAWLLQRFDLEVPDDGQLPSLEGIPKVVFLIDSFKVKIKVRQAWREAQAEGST

[31] = test system: Rattus norvegicus; assay: Clearance in iv dosed Wistar Han rat relative to hepatic blood flow; type: ADME, organism-based; conditions: in vivo

- inhibition (INH) [1]: Not Active
- inhibition (INH) [3]: Not Active
- IC50 [5]: > 31.6 µM
- Cp(f) [6]: 5700 nM
- inhibition (INH) [7]: Not Active
- hepatic extraction ratio [8]: < 0.3
- IC50 [9]: 0.092 µM
- pIC50 [9]: 7
- bioavailability [10]: 91%
- concentration at 0.25 h [12]: 160 nM
- CL [13]: 9.7%
- hepatic extraction ratio [14]: 0.52
- concentration at 3 h [15]: 78 nM
- Cp(f) [16]: 46 nM
- hepatic extraction ratio [17]: < 0.21
- CL [18]: 32%
- hepatic extraction ratio [19]: 0.34
- pIC50 [20]: 5
- Cp(f) [21]: 93 nM
- bioavailability [22]: 91%
- concentration at 0.25 h [23]: 9600 nM
- bioavailability [24]: 14%
- Ratio IC50 [25]: 100
- inhibition (INH) [26]: Not Active
- hepatic extraction ratio [27]: < 0.24
- IC50 [30]: > 31.6 µM
- CL [31]: 24%
Structure (SMILES): CN(CCO)C(=O)c1ccc(Cc2onc3c2C(=O)CC(C)(C)C3)cc1
- Activity [2]: -92.3%
- Activity [4]: -87.9%
- Activity [11]: -62.4%
- inhibition [28]: Dose-dependent effect
- Activity [29]: Non-Toxic
